# Values joined by “and” are separate entries in the source; they are usually repeats but may differ in a detail not shown here. Identical values can stand only once.
# Legend:
# [1] = system: S. epidermidis ATCC14990; test: MIC by microdilution, S. epidermidis ATCC14990; format: cell-based, Staphylococcus epidermidis; conditions: S. epidermidis ATCC14990 (MecA negative, wild-type), in duplicate
# Method: (§1) The antibacterial profile of each derivative was evaluated by the standard microdilution method for susceptibility testing on 16 different strains, following the guidelines of CLSI. The selected panel included: • S. aureus ATCC25923 (MecA negative, wild-type) • S. aureus ATCC29213 (MecA negative, wild-type) • S. aureus ATCC700699 (MecA positive, glycopeptide resistant) • S. aureus ST20131365 (MecA positive, glycopeptide resistant) • S. epidermidis ATCC14990 (MecA negative, wild-type) • S. epidermidis ATCC35984 (MecA positive) • S. epidermidis ST20140436 (MecA positive, glycopeptide resistant) • S. epidermidis ST20150446 (MecA positive, glycopeptide resistant) • E. faecalis JH2-2 (wild-type) • E. faecalis UCN41 (VanA positive, glycopeptide resistant) • E. faecalis V583 (VanB positive, glycopeptide resistant) • E. faecium ATCC19434T (wild-type) • E. faecium BM4147 (VanA positive, glycopeptide resistant) • E. faecium AUS0004 (VanB positive, glycopeptide resistant) • E. coli ATCC25922 (wild-type) • Clostridium difficile ATCC9689 (wild-type)
# (§2) Both series issued from the SAR study were evaluated for their antibacterial activity on a panel of characterized strains obtained from the French National Reference Centers for Staphylococci (Lyon, Pr. Fréderique Laurent) and for Enterococci (Caen, Pr. Vincent Cattoir), respectively. As shown in the following tables, both series contain very active compounds on multi-resistant Gram-positive bacteria (Minimal Inhibitory Concentrations lower than comparator antibiotic ampicillin). Furthermore, a very important antibacterial effect has been shown too on a strain of Clostridium difficile, a Gram-positive, spore-forming, bacillus responsible for post-antibiotic diarrhoae.
# (§3) The antibacterial activity of test compounds was evaluated on a selected panel of Gram-positive (4 Staphylococcus aureus, 4 Staphylococcus epidermidis, 3 Enterococcus faecalis, 3 Enterococcus faecium, 1 Clostridium difficile) and Gram-negative strains (1 Escherichia coli, 1 Klebsiella pneumoniae, 1 Pseudomonas aeruginosa, 1 Acinetacter baumannii) with known features of antibiotic resistance (from wild-type susceptibility to multi-drug resistance). The Minimal Inhibitory Concentration (MIC) of test compounds was determined in duplicate by the microdilution method in 96-well microplates with a final volume of 100 μL per well and Mueller-Hinton broth as the growth medium, as recommended by the CLSI (Clinical and Laboratory Standards Institute, document Mo7-A10, USA).
# [2] = system: E. faecium ATCC19434T; test: MIC by microdilution, E. faecium ATCC19434T; format: cell-based, Enterococcus faecium; parameters: unit not given here; conditions: E. faecium ATCC19434T (wild-type), in duplicate
# Method: as §1, §2, §3
# [3] = system: S. aureus ATCC700699; test: MIC by microdilution, S. aureus ATCC700699; format: cell-based, Staphylococcus aureus; parameters: unit not given here; conditions: S. aureus ATCC700699 (MecA positive, glycopeptide resistant), in duplicate
# Method: as §1, §2, §3
# [4] = system: S. epidermidis ATCC35984; test: MIC by microdilution, S. epidermidis ATCC35984; format: cell-based, Staphylococcus epidermidis; conditions: S. epidermidis ATCC35984 (MecA positive), in duplicate
# Method: as §1, §2, §3
# [5] = system: panel of Gram-positive and Gram-negative strains; test: Antibacterial profile on the selected panel of strains; format: cell-based; conditions: summary of Tables 1-12
# Method: as §1, §2, §3
# [6] = system: S. aureus ST20131365; test: MIC by microdilution, S. aureus ST20131365; format: cell-based, Staphylococcus aureus; conditions: S. aureus ST20131365 (MecA positive, glycopeptide resistant), in duplicate
# Method: as §1, §2, §3
# [7] = system: E. faecalis UCN41; test: MIC by microdilution, E. faecalis UCN41; format: cell-based, Enterococcus faecalis; parameters: unit not given here; conditions: E. faecalis UCN41 (VanA positive, glycopeptide resistant), in duplicate
# Method: as §1, §2, §3
# [8] = system: S. aureus ATCC25923; test: MIC by microdilution, S. aureus ATCC25923; format: cell-based, Staphylococcus aureus; conditions: S. aureus ATCC25923 (MecA negative, wild-type), Mueller-Hinton broth, in duplicate
# Method: as §1, §2, §3
# [9] = system: E. coli ATCC25922; test: MIC by microdilution, E. coli ATCC25922; format: cell-based, Escherichia coli; conditions: E. coli ATCC25922 (wild-type), in duplicate
# Method: as §1, §2, §3
# [10] = system: E. faecalis V583; test: MIC by microdilution, E. faecalis V583; format: cell-based, Enterococcus faecalis; conditions: E. faecalis V583 (VanB positive, glycopeptide resistant), in duplicate
# Method: as §1, §2, §3
# [11] = system: E. faecium AUS0004; test: MIC by microdilution, E. faecium AUS0004; format: cell-based, Enterococcus faecium; conditions: E. faecium AUS0004 (VanB positive, glycopeptide resistant), in duplicate
# Method: as §1, §2, §3
# [12] = system: E. faecalis JH2-2; test: MIC by microdilution, E. faecalis JH2-2; format: cell-based, Enterococcus faecalis; parameters: unit not given here; conditions: E. faecalis JH2-2 (wild-type), in duplicate
# Method: as §1, §2, §3
# [13] = system: Clostridium difficile ATCC700057; test: MIC by microdilution, Clostridium difficile; format: cell-based; conditions: strain ATCC70057 [sic] (Tables 1-2) / ATCC700057 (Tables 3-10), in duplicate
# [14] = system: E. faecium BM4147; test: MIC by microdilution, E. faecium BM4147; format: cell-based, Enterococcus faecium; parameters: unit not given here; conditions: E. faecium BM4147 (VanA positive, glycopeptide resistant), in duplicate
# Method: as §1, §2, §3
# [15] = system: S. epidermidis ST20150446; test: MIC by microdilution, S. epidermidis ST20150446; format: cell-based, Staphylococcus epidermidis; conditions: S. epidermidis ST20150446 (MecA positive, glycopeptide resistant), in duplicate
# Method: as §1, §2, §3
# [16] = system: S. epidermidis ST20140436; test: MIC by microdilution, S. epidermidis ST20140436; format: cell-based, Staphylococcus epidermidis; conditions: S. epidermidis ST20140436 (MecA positive, glycopeptide resistant), in duplicate
# Method: as §1, §2, §3
Structure (SMILES),Minimal Inhibitory Concentration (MIC) [1],Minimal Inhibitory Concentration (MIC) [2],Minimal Inhibitory Concentration (MIC) [3],Minimal Inhibitory Concentration (MIC) [4],antimicrobial / antibacterial activity (in words) [5],Minimal Inhibitory Concentration (MIC) [6],Minimal Inhibitory Concentration (MIC) [7],Minimal Inhibitory Concentration (MIC) [8],Minimal Inhibitory Concentration (MIC) [9],Minimal Inhibitory Concentration (MIC) [10],Minimal Inhibitory Concentration (MIC) [11],Minimal Inhibitory Concentration (MIC) [12],Minimal Inhibitory Concentration (MIC) [13],Minimal Inhibitory Concentration (MIC) [14],Minimal Inhibitory Concentration (MIC) [15],Minimal Inhibitory Concentration (MIC) [16]
"CC(=O)OC[C@H]1O[C@@H]([S-])[C@H](OC(C)=O)[C@@H](OC(C)=O)[C@@H]1OC(C)=O.CCP(CC)CC.[Au+] [Auranofin, reference compound]",≤0.06,≤0.06,≤0.06,≤0.06,,,,,,,,,,,,
C#CCOC(=O)N[C@@H](C(=O)N[C@@H]1C(=O)N2[C@@H]1SC(C)(C)[C@@H]2C(=O)O)c1ccccc1 [TMB2],,,,,do not show an antibacterial activity,,,,,,,,,,,
CC[P+](CC)(CC)[Au-][c]1nn[nH]c1CNC(=O)NC(C(=O)NC1C(=O)N2C1SC(C)(C)C2C(=O)O)c1ccccc1 (stereo not drawn) [TMB24],≤0.06,0.5,0.125 and 0.25,0.125,have antimicrobial activity,0.25,0.25,0.125,>8,0.25 and 0.5,0.5,0.25 and 0.5,≤0.06,0.5,,
CC[P+](CC)(CC)[Au-][c]1nn[nH]c1CCC(=O)N[C@H](CO)C(=O)O [TMB38],≤0.06,≤0.06,0.125,≤0.06,have antimicrobial activity,≤0.06,0.125,≤0.06,,0.125,0.125,0.125,0.125 and 0.25,0.125,≤0.06,≤0.06
"C[C@@H]1COc2c(N3CCN(C)CC3)c(F)cc3c(=O)c(C(=O)O)cn1c23 [TMB47, Ofloxacin, reference compound]",0.25,4,>8,0.125,have antimicrobial activity,,2,0.25,,,,2,,1,,
CC[P+](CC)(CC)[Au-][c]1nn[nH]c1CN1C(=O)NC2CSC(CCCCC(=O)O)C21 (stereo not drawn) [TMB48],0.125,1,0.5,0.125,have antimicrobial activity,,1,0.25,,,,1,,2,,
CC[P+](CC)(CC)[Au-][c]1nn[nH]c1CNc1c(F)cc2c(=O)c(C(=O)O)cn3c2c1OCC3C (stereo not drawn) [TMB49],≤0.06,0.5 and 1,0.25,≤0.06,have antimicrobial activity,,1,0.125,,,,1,,1,,
CC(=O)O.CC[P+](CC)(CC)[Au-][c]1nn[nH]c1CCN [TMB50],≤0.06,0.25,0.125,≤0.06,have antimicrobial activity,,0.5,0.125,,,,0.25,,0.25,,
C#CCNc1c(F)cc2c(=O)c(C(=O)O)cn3c2c1OCC3C (stereo not drawn) [TMB51],4,>8,>8,2,do not show an antibacterial activity,,>8,2,,,,>8,,>8,,
CC[P+](CC)(CC)[Au-][c]1nn[nH]c1CNC(=O)NC(C(=O)O)c1ccccc1 (stereo not drawn) [TMB52],≤0.06,0.25,0.125,≤0.06,have antimicrobial activity,,0.25,,,,,0.25,,0.25,,

# — patent publication US20210284668A1, “GOLD (I)-PHOSPHINE 1,2,3-TRIAZOLE DERIVATIVES WITH ANTIBIOTIC PROPERTIES” (Centre National de la Recherche Scientifique, priority 2018, published 2021)
